Article PMC6015222, “Targeting Phosphopeptide Recognition by the Human BRCA1 Tandem BRCT Domain to Interrupt BRCA1-Dependent Signaling” (Cell Chemical Biology, 2018)
Several values for one entry are separate records, joined by “and”; a condition that tells them apart may be missing. Identical values can stand only once. Non-standard residues stand in square brackets, D forms with d. TAMRA = tetramethylrhodamine label; pS = N[C@@H](COP(=O)(O)O)C(=O)O

How the values were obtained:
BRCA1 tBRCT [1] = molecular target: T1, BRCA1 tBRCT (Homo sapiens, UniProt P38398); test: Competitive MST: inhibition of BACH1 phosphopeptide binding to BRCA1 tBRCT; conditions: for activity in competitive MST, in words / IC50: BACH1 phosphopeptide vs BRCA1 tBRCT; for IC50: MST, mean ± SD of three experiments, NB, no binding
T1 construct: BRCA1 tBRCT residues 1646-1859; made in house; host or cells: E. coli BL21(DE3)
T1 sequence (P38398 1646-1859): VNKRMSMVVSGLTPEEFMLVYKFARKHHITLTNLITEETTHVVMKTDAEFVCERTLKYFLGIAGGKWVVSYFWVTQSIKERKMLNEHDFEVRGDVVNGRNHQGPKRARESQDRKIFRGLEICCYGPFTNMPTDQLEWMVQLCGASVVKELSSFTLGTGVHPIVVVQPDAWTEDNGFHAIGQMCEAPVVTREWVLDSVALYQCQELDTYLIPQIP
Description: Protein domains used in the assay were labeled with NT-647-NHS fluorescent dye using the Monolith NT™ Protein Labeling Kit (NanoTemper Technologies). Assays were carried out in 20mM Tris buffer, pH 7.4, with 200mM NaCl, 0.05% Tween-20 and 2mM DTT. For the direct binding assay, 10μl of labeled protein at a final concentration of 20nM was mixed with 10μl of test compound and incubated on ice for 10 min. For the competitive assay, 10μl of labeled protein at a final concentration of 20nM was mixed with 2μM cognate peptide substrate at the EC80 concentration determined by prior titration using a 16-point serial dilution by direct-binding MST. For both assays, samples prepared as above were centrifuged at 15000 rpm at 4°C for 10 min and 4μl of the supernatant was loaded into premium glass capillaries (NanoTemper Technologies). MST analysis was performed at MST power of 40% and LED power of 80%, at 22°C temperature using a Monolith NT.115 (NanoTemper Technologies). An initial “Capillary Scan” was performed to scan for fluorescence across the length of the capillary tray to determine the exact position of each capillary before the MST measurement was started. Test compounds were assayed at 16 different concentrations by serial dilution, and data were analysed using NanoTemper analysis software. Kd values were determined using “T-jump + Thermophoresis” settings. The change in thermophoresis between different experimental conditions was expressed as the change in the normalized fluorescence (ΔFnorm), which is defined as Fhot/Fcold (F-values correspond to average fluorescence values between defined areas in the curve under steady-state conditions under control (Fcold) or experimental (Fhot) conditions. Titration of the non-fluorescent ligand causes a gradual change in thermophoresis, which is plotted as ΔFnorm to yield a binding curve, which was then fitted to derive binding constants.

[2] = tested on: BRCT domain of poly-ADP ribose polymerase; set-up: method as in Na et al., 2015; conditions: ref Na et al., 2015; cited from earlier work
BRCA1 tBRCT [3] = molecular target: T1, BRCA1 tBRCT; test: AlphaScreen assay: displacement of cognate biotinylated phosphopeptide from BRCA1 tBRCT; conditions: 10-point dose response, read-out: IC50, inhibition of binding of cognate phosphopeptide to BRCA1 tBRCT
Description: We tested 6x-Histidine-tagged BRCA1 tBRCT, TOPBP1 tBRCT 7/8 or GRB2 SH2, and their cognate biotinylated peptide substrates. Initial checkerboard titrations were carried out to determine the optimal concentration of protein and peptide for each screen. Assays were conducted in Costar 96-well flat bottom white polystyrene plates using assay buffer (20mM Tris buffer pH 7.4, 200mM NaCl, 0.05% Tween-20, 2mM DTT). 5x-working concentrations of the reagents were dispensed in 10μl each in the order: 6x-Histidine tagged protein, biotinylated peptide, test compound. Plates were incubated at room temperature for 20 min and 10 μl each of nickel chelate AlphaLISA® acceptor beads and AlphaScreen® Streptavidin donor beads (both from Perkin Elmer) at a final concentration of 20 μg/ml were added. Plates were covered with adhesive seals and incubated in the dark for 1 h at 25°C. The AlphaScreen® signal was read using TECAN infinite M1000 Pro microplate reader at excitation wavelength 680nm and emission wavelength 520-620nm. 1% DMSO controls were run in parallel, and used to calculate percent inhibition. A 10-point dose response was performed in triplicate to determine IC50 values for each compound.

[4] = Solubility in aqueous buffers; type: physicochemical
[5] = molecular target: T2, human BRCA1 tandem BRCT domain (residues 1646-1859) (human, UniProt P38398-1 1646-1859, NT-647-NHS fluorescent dye (in the MST assays only)); test: fluorescence polarisation; 75 nM BRCA1 tBRCT and 10 nM TAMRA-labelled BACH1 peptide, with compound at 125 uM; 20 mM Tris pH 7.4, 200 mM NaCl, 0.05% Tween-20, 2 mM DTT; room temperature; conditions: both partners purified
T2 construct: BRCA1, human, tandem BRCT domain, residues 1646-1859; Synthetic gene in pET28a, codon optimised for E. coli; No removal of the His tag is described; also called BRCA1 tBRCT; 6x His-BRCA1 tBRCT; source: E. coli BL21(DE3), purified (HisTrap HP, Superdex-75 gel filtration); not shown: His6, N-terminal, kept
T2 sequence (P38398 1646-1859): as above

| Molecule | activity in competitive MST, in words (BRCA1 tBRCT [1]) | IC50 (BRCA1 tBRCT [1]) | other results |
| --- | --- | --- | --- |
| O=C(c1ccc2[nH]c(N3CCOCC3)nc2c1)N1CCN(Cc2ccccc2F)CC1 [CCBT2084, (4-(2-fluorobenzyl)piperazin-1-yl)(2-morpholino-1H-benzo[d]imidazol-5-yl) methanone] | abrogated activity | – | – |
| Cc1cc2c(C(C)C)c(O)c(O)c(C=O)c2c(O)c1-c1c(C)cc2c(C(C)C)c(O)c(O)c(C=O)c2c1O [Gossypol] | – | – | binding to the BRCT domain of poly-ADP ribose polymerase [2]: reported to bind |
| Cc1nc2cc(CN3CCN(Cc4ccccc4F)CC3)ccc2[nH]1 [CCBT2908, 5-((4-(2-fluorobenzyl)piperazin-1-yl)methyl)-2-methyl-1H-benzo[d]imidazole] | inactive | – | – |
| Cc1nc2cc(C(=O)N3CCN(Cc4ccccc4F)CC3C(C)C)ccc2[nH]1 (stereo not drawn) [CCBT002, (4-(2-fluorobenzyl)-2-isopropylpiperazin-1-yl) (2-methyl-1H-benzo[d]imidazol-5-yl)methanone] | – | – | IC50 (BRCA1 tBRCT [3]): 47.3 µM; solubility in aqueous buffers [4]: limited solubility |
| CC(C)CN1CCN(C(=O)c2ccc3[nH]c(-c4ccccc4)nc3c2)CC1 [CCBT2047, (4-isobutylpiperazin-1-yl)(2-phenyl-1H-benzo[d]imidazol-5-yl) methanone] | abolishes activity | – | – |
| Cc1nc2cc(C(=O)N3CCN(Cc4ccccc4F)C[C@H]3C(C)C)ccc2[nH]1 [CCBT2905, (R)-(4-(2-fluorobenzyl)-2-isopropylpiperazin-1-yl)(2-methyl-1H-benzo[d]imidazol-5-yl)methanone] | – | 56 µM | – |
| CC(C)c1nc2ccc(C(=O)N3CCN(Cc4ccccc4F)CC3)cc2[nH]1 [CCBT2009, (4-(2-fluorobenzyl)piperazin-1-yl) (2-isopropyl-1H-benzo[d]imidazol-6-yl) methanone] | abrogated activity | – | – |
| Cc1ccc(CN2CCN(C(=O)c3ccc4nc(-c5ccccc5)[nH]c4c3)CC2)cc1 [CCBT2107, (4-(4-methylbenzyl)piperazin-1-yl)(2-phenyl-1H-benzo[d]imidazol-6-yl)methanone] | – | 0.3 µM | – |
| Cc1nc2cc(C(=O)N3CCN(Cc4ccccc4F)C[C@@H]3C(C)C)ccc2[nH]1 [CCBT2906] | – | 1.7 µM | – |
| O=C(c1ccc2nc(-c3ccccc3)[nH]c2c1)N1CCN(Cc2ccc(O)cc2)CC1 [CCBT2106, (4-(4-hydroxybenzyl)piperazin-1-yl)(2-phenyl-1H-benzo[d]imidazole-6-yl)methanone] | – | 3.6 µM | – |
| O=C(c1ccc2[nH]c(-c3ccncc3)nc2c1)N1CCN(Cc2ccccc2F)CC1 [CCBT2082, (4-(2-fluorobenzyl)piperazin-1-yl)(2-(pyridin-4-yl)-1H-benzo[d]imidazol-5-yl)methanone] | – | 0.315 ± 0.18 µM | decrease in activity relative to Bractoppin (BRCA1 tBRCT [1]; competitive MST): 5 fold |
| Cc1nc2cc(C(=O)N3CCN(Cc4ccccc4F)CC3)ccc2[nH]1 [CCBT2907, (4-(2-fluorobenzyl)piperazin-1-yl)(2-methyl-1H-benzo[d]imidazol-5-yl)methanone] | – | > 53 µM and ~53 µM | – |
| {TAMRA}-GGSRST[pS]PTFNK-NH2 (two added glycines before the BACH1 stretch; stretch around the Ser990 phosphosite; the helicase BRIP1 is meant; also called TAMRA-labeled BACH1 peptide; source: synthetic peptide, bought: Designer Bioscience) [TAMRA-labelled phosphopeptide from BACH1 (TAMRA_GGSRSTpSPTFNK-NH2)] | – | – | binding result [5]: binds |
